For 24 compounds, IC50 results are on record in patent publication US20210253575A1, “PYRROLIDINE AMINE COMPOUNDS FOR THE TREATMENT OF AUTOIMMUNE DISEASE” (Hoffmann-La Roche Inc., priority 2018, published 2021).

The target in the assay is T1, human TLR7 (Homo sapiens, UniProt Q9NYK1).
T1 sequence (Q9NYK1 27-1049): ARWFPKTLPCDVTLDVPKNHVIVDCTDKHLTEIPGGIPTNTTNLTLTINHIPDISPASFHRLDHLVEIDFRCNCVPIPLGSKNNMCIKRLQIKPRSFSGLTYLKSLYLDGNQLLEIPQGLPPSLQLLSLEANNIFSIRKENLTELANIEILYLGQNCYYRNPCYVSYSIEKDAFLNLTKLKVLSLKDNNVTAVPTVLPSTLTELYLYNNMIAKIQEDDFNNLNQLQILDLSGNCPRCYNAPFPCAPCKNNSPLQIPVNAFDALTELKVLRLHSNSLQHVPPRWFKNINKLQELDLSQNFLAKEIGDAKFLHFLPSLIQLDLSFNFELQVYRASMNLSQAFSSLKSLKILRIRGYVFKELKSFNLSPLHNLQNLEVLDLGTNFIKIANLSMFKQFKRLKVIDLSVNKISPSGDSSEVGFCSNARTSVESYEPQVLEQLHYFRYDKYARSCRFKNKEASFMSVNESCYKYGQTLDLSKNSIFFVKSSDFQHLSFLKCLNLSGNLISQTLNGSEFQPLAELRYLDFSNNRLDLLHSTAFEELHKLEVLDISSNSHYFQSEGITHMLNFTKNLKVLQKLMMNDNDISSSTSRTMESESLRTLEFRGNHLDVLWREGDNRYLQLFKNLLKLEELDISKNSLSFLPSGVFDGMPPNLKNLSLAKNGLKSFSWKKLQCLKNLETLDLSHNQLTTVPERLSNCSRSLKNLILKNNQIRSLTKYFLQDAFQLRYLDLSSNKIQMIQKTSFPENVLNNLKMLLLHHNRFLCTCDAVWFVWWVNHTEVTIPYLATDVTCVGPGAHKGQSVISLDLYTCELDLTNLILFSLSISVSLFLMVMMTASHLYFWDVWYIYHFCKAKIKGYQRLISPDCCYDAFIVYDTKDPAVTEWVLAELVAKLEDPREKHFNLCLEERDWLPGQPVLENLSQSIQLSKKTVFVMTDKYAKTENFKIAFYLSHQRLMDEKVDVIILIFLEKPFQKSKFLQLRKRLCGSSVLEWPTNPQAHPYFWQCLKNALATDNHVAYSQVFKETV
The assay is described as follows: HEK293-Blue-hTLR-7 cells assay (SEAP reporter, R848 stimulation). Format: cell-based. The settings on record: HEK293-Blue-hTLR7 cells, R848 ligand, 20 hrs incubation. The protocol: The following tests were carried out in order to determine the activity of the compounds of formula (I) in HEK293-Blue-hTLR-7/8/9 cells assay.
HEK293-Blue-hTLR-7 Cells Assay:
A stable HEK293-Blue-hTLR-7 cell line was purchased from InvivoGen (Cat. #: hkb-htlr7, San Diego, Calif., USA). These cells were originally designed for studying the stimulation of human TLR7 by monitoring the activation of NF-κB. A SEAP (secreted embryonic alkaline phosphatase) reporter gene was placed under the control of the IFN-β minimal promoter fused to five NF-κB and AP-1-binding sites. The SEAP was induced by activating NF-κB and AP-1 via stimulating HEK-Blue hTLR7 cells with TLR7 ligands. Therefore the reporter expression was declined by TLR7 antagonist under the stimulation of a ligand, such as R848 (Resiquimod), for incubation of 20 hrs. The cell culture supernatant SEAP reporter activity was determined using QUANTI-Blue™ kit (Cat. #: rep-qb1, Invivogen, San Diego, Ca, USA) at a wavelength of 640 nm, a detection medium that turns purple or blue in the presence of alkaline phosphatase.
HEK293-Blue-hTLR7 cells were incubated at a density of 250,000-450,000 cells/mL in a volume of 170 μL in a 96-well plate in Dulbecco's Modified Eagle's medium (DMEM) containing 4.5 g/L glucose, 50 U/mL penicillin, […], […], 2 mM L-glutamine, 10% (v/v) heat-inactivated fetal bovine serum with addition of 20 μL test compound in a serial dilution in the presence of final DMSO at 1% and 10 μL of 20 uM R848 in above DMEM, perform incubation under 37° C. in a CO2 incubator for 20 hrs. Then 20 μL of the supernatant from each well was incubated with 180 μL Quanti-blue substrate solution at 37° C. for 2 hrs and the absorbance was read at 620-655 nm using a spectrophotometer. The signalling pathway that TLR7 activation leads to downstream NF-κB activation has been widely accepted, and therefore similar reporter assay was modified for evaluating TLR7 antagonist.
`N#Cc1ccc(N2C[C@H](CN3C4CCC3CC(N)C4)[C@@H](C(F)(F)F)C2)c2nccnc12` (stereo partly drawn) [Example 63, 8-[(3S,4R)-3-[(3-amino-8-azabicyclo[3.2.1]octan-8-yl)methyl]-4-(trifluoromethyl)pyrrolidin-1-yl]quinoxaline-5-carbonitrile]: the IC50 (in general, the concentration that gives 50% inhibition) came to 57 nM.
In turn, `N#Cc1ccc(N2C[C@H](CN3CCC(N4CCNCC4)CC3)[C@@H](C(F)(F)F)C2)c2cccnc12` [Example 52, 5-[(3S,4R)-3-[(4-piperazin-1-yl-1-piperidyl)methyl]-4-(trifluoromethyl)pyrrolidin-1-yl]quinoline-8-carbonitrile] had an IC50 of 39 nM.
The value for `N#Cc1ccc(N2C[C@H](CN3CCC(CCN)CC3)[C@@H](C(F)(F)F)C2)c2nccnc12` [Example 79, 8-[(3S,4R)-3-[[4-(2-aminoethyl)-1-piperidyl]methyl]-4-(trifluoromethyl)pyrrolidin-1-yl]quinoxaline-5-carbonitrile] was 37 nM; that for `CC1(N)CCN(C[C@H]2CN(c3ccc(C#N)c4nccnc34)C[C@@H]2C(F)(F)F)CC1` [Example 12, 8-[(3S,4R)-3-[(4-amino-4-methyl-1-piperidyl)methyl]-4-(trifluoromethyl)pyrrolidin-1-yl]quinoxaline-5-carbonitrile] was 15 nM.
Compound `N#Cc1ccc(N2CC(CN3CCC(N4CCCCC4)CC3)C3(CC3)C2)c2nccnc12` (stereo not drawn) [Example 11, 8-[7-[[4-(1-Piperidyl)-1-piperidyl]methyl]-5-azaspiro[2.4]heptan-5-yl]quinoxaline-5-carbonitrile] gave an IC50 of 74 nM.
`N#Cc1ccc(N2C[C@H](CN3CCC4(CCNCC4)CC3)[C@@H](C(F)(F)F)C2)c2cccnc12` [Example 2, 5-[(3S,4R)-3-(3,9-diazaspiro[5.5]undecan-3-ylmethyl)-4-(trifluoromethyl)pyrrolidin-1-yl]quinoline-8-carbonitrile]: half-maximal inhibition (IC50) required 20 nM.
With `N#Cc1ccc(N2C[C@H](CN3CCC4(CCCNC4)C3)[C@@H](C(F)(F)F)C2)c2cccnc12` (stereo partly drawn) [Example 6, 5-[(3S,7R)-3-(2,9-diazaspiro[4.5]decan-2-ylmethyl)-4-(trifluoromethyl)pyrrolidin-1-yl]quinoline-8-carbonitrile], inhibition was half-maximal at 48 nM (IC50).
For `N#Cc1ccc(N2C[C@@H](CN3CCC4(CCNCC4)CC3)[C@H](C(F)F)C2)c2cccnc12` (relative stereo) [Example 27, 5-[Trans-3-(3,9-diazaspiro[5.5]undecan-3-ylmethyl)-4-(difluoromethyl)pyrrolidin-1-yl]quinoline-8-carbonitrile] the value was 354 nM; for `CC(C)[C@@H]1CN(c2ccc(C#N)c3ncccc23)C[C@H]1CN1CCC2(CCNC2)C1` (relative stereo) [Example 44, 5-[Trans-3-(2,7-diazaspiro[4.4]nonan-2-ylmethyl)-4-isopropyl-pyrrolidin-1-yl]quinoline-8-carbonitrile], 963 nM; for `C[C@@H]1CN(c2ccc(C(F)(F)F)c3nccnc23)C[C@H]1CN1CCC(N2CCCCC2)CC1` (relative stereo) [Example 33, 5-[Trans-3-methyl-4-[[4-(1-piperidyl)-1-piperidyl]methyl]pyrrolidin-1-yl]-8-(trifluoromethyl)quinoxaline], 432 nM.
In the case of `N#Cc1ccc(N2CC(CN3CC4CCNCC43)C3(CC3)C2)c2nccnc12` (stereo not drawn) [Example 50, 8-[7-(3,8-Diazabicyclo[4.2.0]octan-8-ylmethyl)-5-azaspiro[2.4]heptan-5-yl]quinoxaline-5-carbonitrile], it took 232 nM to reach half-maximal inhibition (IC50).
As to `N#Cc1ccc(N2C[C@H](CNC3CCNCC3)[C@@H](C(F)(F)F)C2)c2nccnc12` [Example 71, 8-[(3S,4R)-3-[(4-piperidylamino)methyl]-4-(trifluoromethyl)pyrrolidin-1-yl]quinoxaline-5-carbonitrile], the IC50 stood at 39 nM.
Take `N#Cc1ccc(N2CC(CNC3CCCNCC3)C3(CC3)C2)c2nccnc12` (stereo not drawn) [Example 39, 8-[7-[(Azepan-4-ylamino)methyl]-5-azaspiro[2.4]heptan-5-yl]quinoxaline-5-carbonitrile]: the IC50 is 709 nM. This IC50 is about 18-fold higher than that of the compound before.
Turning to `N#Cc1ccc(N2C[C@H](CN3CCC(N4CCCCC4)CC3)[C@@H](C(F)(F)F)C2)c2cccnc12` [Example 10, 5-[(3S,4R)-3-[[4-(1-piperidyl)-1-piperidyl]methyl]-4-(trifluoromethyl)pyrrolidin-1-yl]quinoline-8-carbonitrile], inhibition was half-maximal at 69 nM (IC50). This IC50 is about 10-fold lower than that of the compound before.
The value for `N#Cc1ccc(N2C[C@H](CN3CCC4(CCCNC4)CC3)[C@@H](C(F)(F)F)C2)c2nccnc12` [Example 45, 8-[(3S,4R)-3-(2,9-diazaspiro[5.5]undecan-9-ylmethyl)-4-(trifluoromethyl)pyrrolidin-1-yl]quinoxaline-5-carbonitrile] was 49 nM; that for `N#Cc1ccc(N2CC(CN3CCC4(CCCNC4)C3)C3(CC3)C2)c2nccnc12` (stereo not drawn) [Example 22, 8-[7-(2,9-Diazaspiro[4.5]decan-2-ylmethyl)-5-azaspiro[2.4]heptan-5-yl]quinoxaline-5-carbonitrile] was 201 nM; that for `C[C@@H]1CN(c2ccc(C(F)(F)F)c3nccnc23)C[C@H]1CNC1CCCNCC1` (stereo partly drawn) [Example 40] was 746 nM.
For the compound `CC1(N)CCN(CC2CN(c3ccc(C#N)c4nccnc34)CC23CC3)CC1` (stereo not drawn) [Example 7, 8-[7-[(4-Amino-4-methyl-1-piperidyl)methyl]-5-azaspiro[2.4]heptan-5-yl]quinoxaline-5-carbonitrile], the IC50 stood at 54 nM.
`N#Cc1ccc(N2CC(CN3CCC4(CCNC4)C3)C3(CC3)C2)c2cccnc12` (stereo not drawn) [Example 43, 5-[7-(2,7-Diazaspiro[4.4]nonan-2-ylmethyl)-5-azaspiro[2.4]heptan-5-yl]quinoline-8-carbonitrile] came in with an IC50 of 899 nM.
`C[C@H]1CN(c2ccc(C#N)c3ncccc23)C[C@@H]1CN1CCC2(CCNC2)C1` (stereo partly drawn) [Example 35, 5-[(3S,4R)-3-(2,7-diazaspiro[4.4]nonan-2-ylmethyl)-4-methyl-pyrrolidin-1-yl]quinoline-8-carbonitrile] showed an IC50 of 468 nM.
The compound `N#Cc1ccc(N2C[C@H](CN3CCCC(C(N)=O)C3)[C@@H](C(F)(F)F)C2)c2nccnc12` (stereo partly drawn) [Example 69, 1-[[(3S,4R)-1-(S-cyanoquinoxalin-5-yl)-4-(trifluoromethyl)pyrrolidin-3-yl]methyl]piperidine-3-carboxamide] yielded a concentration for half-maximal inhibition (IC50) of 135 nM. Compared with the last compound, the IC50 is about 3.5-fold lower.
For `N#Cc1ccc(N2C[C@H](CN3CCC4(CC3)CNCCO4)[C@@H](C(F)(F)F)C2)c2nccnc12` [Example 70, 8-[(3S,4R)-3-(1-oxa-4,9-diazaspiro[5.5]undecan-9-ylmethyl)-4-(trifluoromethyl)pyrrolidin-1-yl]quinoxaline-5-carbonitrile] the value was 12 nM.
As to `N#Cc1ccc(N2CC(CN3CCC(N)CC3)C3(CC3)C2)c2nccnc12` (single isomer, unassigned) [Example 68A, 8-[7-[(4-Amino-1-piperidyl)methyl]-5-azaspiro[2.4]heptan-5-yl]quinoxaline-5-carbonitrile], the IC50 was 61 nM.
`N#Cc1ccc(N2C[C@H](CN3CCC(N4CCCCCC4)CC3)[C@@H](C(F)(F)F)C2)c2nccnc12` [Example 62, 8-[(3S,4R)-3-[[4-(Azepan-1-yl)-1-piperidyl]methyl]-4-(trifluoromethyl)pyrrolidin-1-yl]quinoxaline-5-carbonitrile] registered an IC50 of 34 nM. Against the preceding compound, the IC50 is about 1.8-fold lower.
